From patent US9737607B2, “Polymer, and pharmaceutical composition employing the same” (INDUSTRIAL TECHNOLOGY RESEARCH INSTITUTE, priority 2014, dated 2017) come the findings set out here.

Data set [1] relates to Sal. Typhimurium TA100 strain. Nature of the data set: Ames test, TA100. The conditions noted are these: without S9, positive control 100 μL/plate. As for the experimental part:
(§1) The Ames test was carried out using Sal. Typhimurium TA98 strain and Sal. Typhimurium TA100 strain without an enzyme for activating metabolism of drugs (S9).
(§2) The Ames test was carried out using Sal. Typhimurium TA98 strain and Sal. Typhimurium TA100 strain with an enzyme for activating metabolism of drugs (S9). DMSO (100 μL/plate) was used as negative control, and (+)Benzo[α]pyrene (100 μL/plate) was used as positive control.
A general note: The Ames test detects mutagens through reverse mutation in bacteria.

The test system of data set [2] is Sal. Typhimurium TA98 strain. Nature of the data set: Ames test, TA98. To be noted: without S9, positive control 100 μL/plate. The method, then:
as §1, §2

With `Nc1ccc([N+](=O)[O-])cc1N` [NOPD, 4-nitro-o-phenylenediamine], the “TA100 (CFU/plate)” value in data set [1] came out at 1019 CFU/plate. Moreover, the “TA98 (CFU/plate)” value in data set [2] amounted to 1200 CFU/plate.
